In the supplement of paper PMC10331698:
± gives the standard deviation of the averaged measurements.

Tests used:
Assay in all cases: level (log10 ratio to DMSO vehicle control); higher = higher biomarker level / cell amount than vehicle control
Details in all cases: in DMSO
[1] = compound: C=CC(=O)OCCC(F)(F)C(F)(F)C(F)(F)C(F)(F)F [2-(Perfluorobutyl)ethyl acrylate]
Description: (§1)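 BioMAP Diversity Plus panel of 12 human primary cell co-culture systems (3C, 4H, LPS, SAg, BT, BF4T, BE3C, CASM3C, HDF3CGF, KF3CT, MyoF, Mphg). Compounds were added 1 h before stimulation and left for 24 h (MyoF 48 h; BT 72 h for soluble read-outs or 6 d for IgG). Biomarkers were read by ELISA, cytotoxicity by SRB, PBMC viability and proliferation by Alamar Blue. Each well value was divided by the mean of 8 DMSO control wells on the same plate and log10 transformed; duplicate blinded samples were tested at 4 concentrations.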

[2] = compound: O=C(O)C(F)(F)OC(F)(F)C(F)(F)OC(F)(F)C(F)(F)C(F)(F)C(F)(F)F [Perfluoro-3,6-dioxadecanoic acid]
Description: as §1

[3] = compound: O=C(O)CCC(F)(F)C(F)(F)C(F)(F)F [3:3 Fluorotelomer carboxylic acid]
Description: as §1

Test System	level (log10) ([1]; 6700 nM)	level (log10) ([1]; 20000 nM)	level (log10) ([1]; 60000 nM)	level (log10) ([2]; 6700 nM)	level (log10) ([2]; 20000 nM)	level (log10) ([2]; 60000 nM)	level (log10) ([3]; 6700 nM)	level (log10) ([3]; 20000 nM)	level (log10) ([3]; 60000 nM)
SAg:PBMC Cytotoxicity	-0.034 ± 0.0085	-0.0385 ± 0.011	-0.125 ± 0.028	0.03 ± 0.0085	0.0395 ± 0.018	0.0705 ± 0.00071	-0.022 ± 0.0071	-0.014 ± 0.031	-0.0045 ± 0.035
SAg:Proliferation	-0.043 ± 0.035	-0.122 ± 0.035	-0.372 ± 0.1	-0.007 ± 0.03	0.023 ± 0.033	0.0095 ± 0.043	-0.021 ± 0.013	0.0205 ± 0.053	-0.006 ± 0.0085
SAg:SRB	0.009 ± 0.0071	0.0115 ± 0.0092	-0.0175 ± 0.028	-0.016 ± 0.0014	-0.0085 ± 0.021	-0.0855 ± 0.037	-0.0065 ± 0.011	-0.0065 ± 0.0078	-0.005 ± 0.016
